In patent US20260078130A1, “NAMPT MODULATORS, PREPARATIONS, AND USES THEREOF” (SIRONAX LTD., priority 2022, published 2026):

Assays:
[1] = molecular target: T1, human enzyme NAMPT (full length) (Homo sapiens, UniProt P43490); test: NMN fluorescence biochemical assay (stimulation of NMN synthesis by NAMPT); details: for EC50: NMN fluorescence assay, purified human NAMPT 100 nM, concentration giving half-maximal activation, read-out: Enzymatic EC50; for Enzymatic Emax: fold change of maximal activation compared to DMSO
T1 construct: human enzyme NAMPT (full length)
T1 sequence (P43490 whole entry): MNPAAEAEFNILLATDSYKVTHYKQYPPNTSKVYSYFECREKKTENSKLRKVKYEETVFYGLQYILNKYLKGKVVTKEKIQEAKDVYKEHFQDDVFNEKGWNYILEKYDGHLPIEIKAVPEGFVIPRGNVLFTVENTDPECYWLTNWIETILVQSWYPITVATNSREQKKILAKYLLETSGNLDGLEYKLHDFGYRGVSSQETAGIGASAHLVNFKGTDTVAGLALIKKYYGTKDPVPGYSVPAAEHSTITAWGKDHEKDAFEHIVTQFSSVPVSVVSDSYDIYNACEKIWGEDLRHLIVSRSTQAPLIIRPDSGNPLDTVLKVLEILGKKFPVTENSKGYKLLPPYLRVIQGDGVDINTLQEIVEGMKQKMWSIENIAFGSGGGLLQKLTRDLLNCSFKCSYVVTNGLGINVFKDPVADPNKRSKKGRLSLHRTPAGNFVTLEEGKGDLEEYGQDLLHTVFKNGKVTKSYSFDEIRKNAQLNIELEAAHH
How it was run: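 Full-length human NAMPT (100 nM) was preincubated 15 min at 37 °C with compound in 50 mM Tris-HCl pH 7.5, 10 mM MgCl2, 2 mM DTT, then reacted 1 h at 37 °C with 50 μM NAM, 100 μM PRPP, 4 mM ATP (stated solution concentrations). NMN was derivatised with acetophenone/KOH then formic acid and read at Ex/Em 382/445 nm; EC50 and Emax (fold over DMSO) reported.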

[2] = tested on: endogenous NAMPT in U2OS cells; test: Cellular NAD+ modulation assay (NAD/NADH-Glo, U2OS cells); format: cell-based; details: Homo sapiens, 24 hours incubation, cellular NAD+; for maximal fold induction: read-out: Cellular Emax
How it was run: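 NAD/NADH-Glo luminescence quantified NAD+ after acid treatment (60 °C, 15 min) and neutralization of DTAB lysates. Beforehand, U2OS cells seeded 16 h earlier received compound concentration series for 24 h at 37 °C. Values given as half-maximal activation concentration (EC50) and maximal fold change versus DMSO (Emax).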

Compound	EC50 [1] [nM]	Enzymatic Emax [1]	EC50 [2] [nM]	maximal fold induction [2]
Cn1ncc(Cl)c1CC1c2scnc2C(=O)N1Cc1ccc(O)cc1 (stereo not shown) [Compound 430, 6-((4-chloro-1-methyl-1H-pyrazol-5-yl)methyl)-5-(4-hydroxybenzyl)-5,6-dihydro-4H-pyrrolo[3,4-d]thiazol-4-one]	< 500	B (3≥B>2)	< 500	> 1.5
Cn1ncc(Cl)c1CC1c2cc(Br)ccc2C(=O)N1Cc1ccc2[nH]c(=O)oc2c1 (stereo not shown) [Compound 431, 6-((5-bromo-3-((4-chloro-1-methyl-1H-pyrazol-5-yl)methyl)-1-oxoisoindolin-2-yl)methyl)benzo[d]oxazol-2(3H)-one]	< 500	A (A>3)	< 500	> 1.5
Cn1ncc(Cl)c1CC1c2cc(C(F)F)ccc2C(=O)N1Cc1ccc2[nH]nnc2c1 (stereo not shown) [Compound 435, 2-((1H-benzo[d][1,2,3]triazol-5-yl)methyl)-3-((4-chloro-1-methyl-1H-pyrazol-5-yl)methyl)-5-(difluoromethyl)isoindolin-1-one]	< 500	A (A>3)	< 500	> 1.5
COCc1ccc2c(c1)C(Cc1c(Cl)cnn1C)N(Cc1ccc3[nH]nnc3c1)C2=O (stereo not shown) [Compound 436, 2-((1H-benzo[d][1,2,3]triazol-5-yl)methyl)-3-((4-chloro-1-methyl-1H-pyrazol-5-yl)methyl)-5-(methoxymethyl)isoindolin-1-one]	< 500	A (A>3)	< 500	> 1.5
Cn1ncc(Cl)c1CC1c2cc(OC3CNC3)ccc2C(=O)N1Cc1ccc2[nH]nnc2c1 (stereo not shown) [Compound 437, 2-((1H-benzo[d][1,2,3]triazol-5-yl)methyl)-5-(azetidin-3-yloxy)-3-((4-chloro-1-methyl-1H-pyrazol-5-yl)methyl)isoindolin-1-one]	< 500	A (A>3)	5000 to 50000	> 1.5
Cn1nc(C2CNC2)c(Cl)c1CC1c2ccccc2C(=O)N1Cc1ccc2[nH]nnc2c1 (stereo not shown) [Compound 438, 2-((1H-benzo[d][1,2,3]triazol-5-yl)methyl)-3-((3-(azetidin-3-yl)-4-chloro-1-methyl-1H-pyrazol-5-yl)methyl)isoindolin-1-one]	< 500	B (3≥B>2)	500 to 5000	> 1.5

Further lines, with some results ahead:

EC50 [1] [nM]	Enzymatic Emax [1]	EC50 [2] [nM]	Compound	maximal fold induction [2]
500 to 5000	A (A>3)	500 to 5000	Cc1ccnc(C(N)=O)c1CC1c2ccccc2C(=O)N1Cc1ccc2[nH]nnc2c1 (stereo not shown) [Compound 444, 3-((2-((1H-benzo[d][1,2,3]triazol-5-yl)methyl)-3-oxoisoindolin-1-yl)methyl)-4-methylpicolinamide]	> 1.5
< 500	B (3≥B>2)	< 500	N#Cc1ccnc(C#N)c1CC1c2ccccc2C(=O)N1CC1CC2(CNC(=O)O2)C1 (stereo not shown) [Compound 446, 3-((3-oxo-2-((6-oxo-5-oxa-7-azaspiro[3.4]octan-2-yl)methyl)isoindolin-1-yl)methyl)pyridine-2,4-dicarbonitrile]	> 1.5
< 500	A (A>3)	500 to 5000	O=C1c2ccccc2C(Cc2nc(Br)sc2Cl)N1Cc1ccc2[nH]nnc2c1 (stereo not shown) [Compound 448, 2-((1H-benzo[d][1,2,3]triazol-5-yl)methyl)-3-((2-bromo-5-chlorothiazol-4-yl)methyl)isoindolin-1-one]	> 1.5
500 to 5000	B (3≥B>2)	< 500	Cc1ccnc(C#N)c1CC1c2ccc(F)cc2C(=O)N1CC1CC2(CNC(=O)O2)C1 (stereo not shown) [Compound 449, 3-((5-fluoro-3-oxo-2-((6-oxo-5-oxa-7-azaspiro[3.4]octan-2-yl)methyl)isoindolin-1-yl)methyl)-4-methylpicolinonitrile]	> 1.5
